Test results from patent US20110263507A1 (priority 2007, published 2011).
Read-outs that look alike come from different tables or passages of the source. Where a SMILES comes first, the peptide text is derived from it. Where no end group is shown, it is not given here. [ ]: non-standard residue; d: D form. Ala(indol-4-yl) = N[C@@H](Cc1cccc2[nH]ccc12)C(=O)O; NMeR = CN[C@@H](CCCNC(=N)N)C(=O)O; pGlu = O=C1CC[C@@H](C(=O)O)N1; Tle = CC(C)(C)[C@H](N)C(=O)O; dOrn = NCCC[C@@H](N)C(=O)O; Orn = NCCC[C@H](N)C(=O)O; Dab = NCC[C@H](N)C(=O)O

Legend:
[1] = Degradation of peptides in plasma in vitro (stability to plasma peptidases); format: in vitro ADME; settings: peptide incubated with human (FIG. 4) or rat plasma
Experimental: All peptides that were stable (half-lives >100 h), such as NT66, NT67, NT69, NT72, and NT73, have either a blocked amino group (N-Methyl-Arg) or a D-amino in the 8 or 9 position (Table 4).

hNTS1 = molecular target: T1, hNTS1 (Homo sapiens, UniProt P30989); assay: Radioligand competition binding with [3H]NT, membranes of CHO-K1 cells expressing hNTS1; settings: for hNTS1 Selectivity: hNTS1 over hNTS2; for binding / Kd at hNTS1 in words: text b54
T1 construct: expressed in transfected cells; host or cells: CHO-K1
T1 sequence (P30989 whole entry): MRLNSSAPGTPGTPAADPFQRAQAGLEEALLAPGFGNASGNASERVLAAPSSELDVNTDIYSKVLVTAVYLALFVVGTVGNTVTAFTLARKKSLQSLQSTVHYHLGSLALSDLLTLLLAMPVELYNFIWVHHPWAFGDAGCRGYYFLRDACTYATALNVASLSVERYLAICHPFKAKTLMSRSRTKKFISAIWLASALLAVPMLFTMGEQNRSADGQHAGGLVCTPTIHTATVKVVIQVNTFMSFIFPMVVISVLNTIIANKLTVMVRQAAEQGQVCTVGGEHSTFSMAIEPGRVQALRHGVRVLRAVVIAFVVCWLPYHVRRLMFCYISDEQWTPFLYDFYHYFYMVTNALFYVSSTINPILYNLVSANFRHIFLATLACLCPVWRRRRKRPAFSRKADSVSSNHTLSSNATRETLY
Experimental: CHO-K1 cells that had been stably transfected separately with the hNTS1 or hNTS2 genes were cultured in 150 mm (500 cm^2) Petri plates with 35 ml of Dulbecco's modified Eagle's medium containing 100 μM minimal essential medium nonessential amino acids (Life Technologies, Inc.) supplemented with 5% (v/v) FetalClone II bovine serum product (Hyclone Labs, Logan, Utah). […] The cellular pellet (in Tris-HCl buffer) was stored at […] until the radioligand binding was performed.
For use in binding assays, crude membrane preparations were prepared by centrifugation of the cellular pellet at 35,600×g for 10 min. The supernatant was decanted and discarded, and the cellular pellet was resuspended in 1 ml of Tris-HCl buffer followed by homogenization with a Brinkmann Polytron at setting 5.5 for 15 s. Centrifugation was repeated as above, the supernatant was decanted and discarded, and the cellular pellet was resuspended in 1 ml of Tris-HCl buffer followed by homogenization. Centrifugation was repeated a third time, the supernatant was discarded, and the final cellular pellet was suspended in 0.5-2.5 ml of Tris-HCl buffer. Protein concentration of the membrane preparation was estimated by the method of Lowry et al. using bovine serum albumin as a standard.
Incubation was at 20° C. for 40 min. The assay was routinely terminated by addition of ice-cold 0.9% NaCl (5×1.5 ml), followed by rapid filtration through a GF/B filter strip that had been pretreated with 0.2% or 2% polyethyleneimine. Details of binding assays have been described previously. […] Data were analyzed using the LIGAND program.

hNTS2 = molecular target: T2, hNTS2 (Homo sapiens, UniProt O95665); assay: Radioligand competition binding with [3H]NT, membranes of CHO-K1 cells expressing hNTS2
T2 construct: expressed in transfected cells; host or cells: CHO-K1
T2 sequence (O95665 whole entry): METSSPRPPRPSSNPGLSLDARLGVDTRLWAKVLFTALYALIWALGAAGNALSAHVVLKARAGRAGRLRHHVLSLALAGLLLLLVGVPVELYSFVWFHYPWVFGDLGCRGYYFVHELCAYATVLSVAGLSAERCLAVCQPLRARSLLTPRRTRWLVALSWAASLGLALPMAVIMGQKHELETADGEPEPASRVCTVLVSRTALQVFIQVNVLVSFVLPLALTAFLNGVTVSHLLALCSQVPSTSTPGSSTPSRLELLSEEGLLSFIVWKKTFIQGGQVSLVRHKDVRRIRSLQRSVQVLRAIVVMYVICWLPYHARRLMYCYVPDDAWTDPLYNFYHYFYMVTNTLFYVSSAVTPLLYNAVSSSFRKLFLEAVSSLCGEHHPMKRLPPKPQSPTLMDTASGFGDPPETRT
Experimental: CHO-K1 cells that had been stably transfected separately with the hNTS1 or hNTS2 genes were cultured in 150 mm (500 cm^2) Petri plates with 35 ml of Dulbecco's modified Eagle's medium containing 100 μM minimal essential medium nonessential amino acids (Life Technologies, Inc.) supplemented with 5% (v/v) FetalClone II bovine serum product (Hyclone Labs, Logan, Utah). CHO cells (subculture 7-15) were harvested at confluence by aspiration of the medium, followed by a wash with ice-cold 50 mM Tris-HCl buffer, pH=7.4, which was discarded, resuspension in 5-15 ml of Tris-HCl, scraping the cells with a plastic spatula into a centrifuge tube, and collection of cells by centrifugation at 300×g for 5 min at 4° C., in a GPR centrifuge (Beckman Instruments, Fullerton, Calif.). The cellular pellet (in Tris-HCl buffer) was stored at −180° C. until the radioligand binding was performed.
Incubation was at 20° C. for 40 min. The assay was routinely terminated by addition of ice-cold 0.9% NaCl (5×1.5 ml), followed by rapid filtration through a GF/B filter strip that had been pretreated with 0.2% or 2% polyethyleneimine. […] Data were analyzed using the LIGAND program.
Curves were generated using the LIGAND program. […] Data are the means of duplicate determinations and are representative results from one of at least three independent experiments.

[2] = read-out: hNTS1 Geometric Mean ∀ SEM (equilibrium dissociation constant Kd)
[3] = Table 2, read-out: hNTS2 Geometric Mean ∀ SEM (equilibrium dissociation constant Kd)

hNTS1 Selectivity (hNTS1; Table 2)	hNTS2 Selectivity (hNTS2; Table 2, hNTS2 over hNTS1)	Kd (hNTS1; [2]) [nM]	Kd (hNTS2; [3]) [nM]	Compound	further results
41.0	0.02			CC(C)C[C@H](NC(=O)[C@@H](NC(=O)[C@H](Cc1cccc2[nH]ccc12)NC(=O)[C@@H]1CCCN1C(=O)[C@H](N)CCCCN)C(C)(C)C)C(=O)O [NT72, [D-Lys^9,L-neo-Trp^11,tert-Leu^12]NT(9-13)] (H-[dK]P[Ala(indol-4-yl)][Tle]L-OH; N-terminus and C-terminus assumed)	half-life ([1]; read-out: half-lives in plasma): > 100 h; Kd (hNTS1; text, read-out: Kd at hNTS1): 34 nM; hNTS2 Selectivity (hNTS2; Table 4): — (“—“ indicates higher affinity for hNTS1); Kd (hNTS2; text, read-out: Kd at hNTS2): 1400 nM
0.3	3.3	1500 ± 100	460 ± 70	CC(C)C[C@H](NC(=O)[C@@H](NC(=O)[C@H](Cc1cccc2[nH]ccc12)NC(=O)[C@@H]1CCCN1C(=O)[C@@H](CCCN)NC(=O)[C@@H](N)CCCNC(=N)N)C(C)(C)C)C(=O)O [NT77, [D-Orn^9,L-neo-Trp^11,tert-Leu^12]NT(8-13)] (H-R[dOrn]P[Ala(indol-4-yl)][Tle]L-OH; N-terminus and C-terminus assumed)	hNTS2 Selectivity (hNTS2; Table 4): 3.3
4.0	0.2	0.25 ± 0.02	1.2 ± 0.2	KRPYIL [NT17, [L-Lys^8]NT(8-13)]	
6.6	0.2	120 ± 10	790 ± 20	CC[C@H](C)[C@H](NC(=O)[C@H](Cc1ccc(O)cc1)NC(=O)[C@@H]1CCCN1C(=O)[C@@H](CCCN)NC(=O)[C@@H](N)CCCNC(=N)N)C(=O)N[C@@H](CC(C)C)C(=O)O [NT24, [D-Orn^9]NT(8-13)] (H-R[dOrn]PYIL-OH; N-terminus and C-terminus assumed)	
				CC[C@H](C)[C@H](NC(=O)[C@H](Cc1cccc2[nH]ccc12)NC(=O)[C@@H]1CCCN1C(=O)[C@H](CCCNC(=N)N)NC(=O)[C@@H](N)CCCNC(=N)N)C(=O)N[C@@H](CC(C)C)C(=O)O [NT64L, [L-neo-Trp^11]NT(8-13)]	degradation in plasma [1]: rapidly degraded
4.4	0.2	1500 ± 100		CC[C@H](C)[C@H](NC(=O)[C@H](Cc1ccc(O)cc1)NC(=O)[C@@H]1CCCN1C(=O)[C@@H](CCCN)NC(=O)[C@H](CCCNC(=N)N)NC(=O)[C@@H]1CCCN1C(=O)[C@H](CCCCN)NC(=O)[C@H](CC(N)=O)NC(=O)[C@H](CCC(=O)O)NC(=O)[C@H](Cc1ccc(O)cc1)NC(=O)[C@H](CC(C)C)NC(=O)[C@@H]1CCC(=O)N1)C(=O)N[C@@H](CC(C)C)C(=O)O [NT61, [D-Orn^9]NT(1-13)] ([pGlu]LYENKPR[dOrn]PYIL-OH; C-terminus assumed)	Kd (hNTS2; text b54, read-out: Kd at hNTS2): 6600 nM
2.3	0.4		169 ± 8	[DAB^9,L-neo-Trp^11]NT(9-13) [NT75]	Kd (hNTS1; Table 2, n.d. = no detectable binding at 1 μM, †/* values published before by the same laboratory, read-out: hNTS1 Geometric Mean ∀ SEM (equilibrium dissociation constant Kd)): 73 ± 5 nM
0.5	2.1	1400 ± 300	660 ± 50	CN[C@@H](CCCNC(=N)N)C(=O)N[C@H](CCCN)C(=O)N1CCC[C@H]1C(=O)N[C@@H](Cc1c[nH]c2ccccc12)C(=O)N[C@H](C(=O)N[C@@H](CC(C)C)C(=O)O)C(C)(C)C [NT78T, [N-methyl-Arg^8,D-Orn^9,L-Trp^11,tert-Leu^12]NT(8-13)] (H-[NMeR][dOrn]PW[Tle]L-OH; N-terminus and C-terminus assumed)	
1.3	0.8	3 ± 0.3	3.9 ± 0.2	CC[C@H](C)[C@H](NC(=O)[C@H](Cc1ccc(O)cc1)NC(=O)[C@@H]1CCCN1C(=O)[C@H](CCCN)NC(=O)[C@@H](N)CCCN)C(=O)N[C@@H](CC(C)C)C(=O)O [NT25, [L-Orn^8,L-Orn^9]NT(8-13)]	
1.6	0.6	0.94 ± 0.06	1.5 ± 0.1	CC[C@H](C)[C@H](NC(=O)[C@H](Cc1ccc(O)cc1)NC(=O)[C@@H]1CCCN1C(=O)[C@H](CCCN)NC(=O)[C@@H](N)CCCNC(=N)N)C(=O)N[C@@H](CC(C)C)C(=O)O [NT23, [L-Orn^9]NT(8-13)] (H-R[Orn]PYIL-OH; N-terminus and C-terminus assumed)	
			1160 ± 20	CC[C@H](C)[C@H](NC(=O)[C@@H](Cc1ccc(O)cc1)NC(=O)[C@@H]1CCCN1C(=O)[C@H](CCCN)NC(=O)[C@@H](N)CCCNC(=N)N)C(=O)N[C@@H](CC(C)C)C(=O)O [NT36, [L-Orn^9,D-Tyr^11]NT(8-13)] (H-R[Orn]P[dY]IL-OH; N-terminus and C-terminus assumed)	binding / Kd at hNTS1 in words (hNTS1): no detectable binding; Kd at hNTS2 in words (hNTS2; text b54): micromolar Kd's
1.2	0.8	33 ± 6	39.6 ± 0.6	CC[C@H](C)[C@H](NC(=O)[C@H](Cc1ccc(O)cc1)NC(=O)[C@@H]1CCCN1C(=O)[C@@H](CCCNC(=N)N)NC(=O)[C@@H](N)CCCCN)C(=O)N[C@@H](CC(C)C)C(=O)O [NT16, [L-Lys^8,D-Arg^9]NT(8-13)] (H-K[dR]PYIL-OH; N-terminus and C-terminus assumed)	
0.7	1.5	1.71 ± 0.06	1.11 ± 0.03	CN[C@@H](CCCNC(=N)N)C(=O)N[C@@H](CCN)C(=O)N1CCC[C@H]1C(=O)N[C@@H](Cc1cccc2[nH]ccc12)C(=O)N[C@H](C(=O)N[C@@H](CC(C)C)C(=O)O)C(C)(C)C [NT71, [N-methyl-Arg^8,DAB^9,L-neo-Trp^11,tert-leu^12]NT(8-13)] (H-[NMeR][Dab]P[Ala(indol-4-yl)][Tle]L-OH; N-terminus and C-terminus assumed)	
4.6	0.2		4.6 ± 0.5	CC[C@H](C)[C@H](NC(=O)[C@H](Cc1ccc(O)cc1)NC(=O)[C@@H]1CCCN1C(=O)[C@H](CCCNC(=N)N)NC(=O)[C@H](N)CCCCN)C(=O)N[C@@H](CC(C)C)C(=O)O [NT02, [D-Lys^8]NT(8-13)] (H-[dK]RPYIL-OH; N-terminus and C-terminus assumed)	
6.6	0.2	3.6 ± 0.2	24 ± 2	CC[C@H](C)[C@H](NC(=O)[C@H](Cc1ccc(O)cc1)NC(=O)[C@@H]1CCCN1C(=O)[C@H](CCCN)NC(=O)[C@H](N)CCCN)C(=O)N[C@@H](CC(C)C)C(=O)O [NT27, [D-Orn^8,L-Orn^9]NT(8-13)]	
0.1	7.7	140 ± 19	18.1 ± 0.7	CC(C)C[C@H](NC(=O)[C@@H](NC(=O)[C@H](Cc1c[nH]c2ccccc12)NC(=O)[C@@H]1CCCN1C(=O)[C@H](CCCNC(=N)N)NC(=O)[C@H](N)CCCCN)C(C)(C)C)C(=O)O [NT66T, [D-Lys^8,L-Trp^11,tert-Leu^12]NT(8-13)] (H-[dK]RPW[Tle]L-OH; N-terminus and C-terminus assumed)	
			1800 ± 100	CC[C@H](C)[C@H](NC(=O)[C@@H](Cc1ccc(O)cc1)NC(=O)[C@@H]1CCCN1C(=O)[C@@H](CCCN)NC(=O)[C@@H](N)CCCNC(=N)N)C(=O)N[C@@H](CC(C)C)C(=O)O [NT37, [D-Orn^9,D-Tyr^11]NT(8-13)] (H-R[dOrn]P[dY]IL-OH; N-terminus and C-terminus assumed)	binding / Kd at hNTS1 in words (hNTS1): no detectable binding; Kd at hNTS2 in words (hNTS2; text b54): micromolar Kd's
0.2	4.8	1530 ± 80	320 ± 20	CC(C)C[C@H](NC(=O)[C@@H](NC(=O)[C@H](Cc1c[nH]c2ccccc12)NC(=O)[C@@H]1CCCN1C(=O)[C@@H](CCCN)NC(=O)[C@@H](N)CCCNC(=N)N)C(C)(C)C)C(=O)O [NT77T, [D-Orn^9,L-Trp^11,tert-Leu^12]NT(8-13)] (H-R[dOrn]PW[Tle]L-OH; N-terminus and C-terminus assumed)	

Compound	hNTS1 Selectivity (hNTS1; Table 2)	hNTS2 Selectivity (hNTS2; Table 2, hNTS2 over hNTS1)	Kd (hNTS1; [2]) [nM]	Kd (hNTS2; [3]) [nM]	further results
RRPAIL [NT08, [Ala^11]NT(8-13)] [listing 1 of 2 here]				58 ± 5	Kd (hNTS1): 2500 ± 200 nM
CC[C@H](C)[C@H](NC(=O)[C@H](Cc1ccc(O)cc1)NC(=O)[C@@H]1CCCN1C(=O)[C@@H](CCCCN)NC(=O)[C@@H](N)CCCNC(=N)N)C(=O)N[C@@H](CC(C)C)C(=O)O [NT03, [D-Lys^9]NT(8-13)] (H-R[dK]PYIL-OH; N-terminus and C-terminus assumed)	0.4	2.5			Kd (hNTS1): 690 ± 30 nM; Kd (hNTS2): 280 ± 30 nM
RRPAIL [NT08, [Ala^11]NT(8-13)] [listing 2 of 2 here]	0.02	43			NTS2 Selectivity (hNTS2; Table 3): 43; hNTS2 Selectivity (hNTS2; Table 4): 43
RKPYIL [NT18, [L-Lys^9]NT(8-13)]	0.8	1.3			Kd (hNTS1): 1.49 ± 0.09 nM; Kd (hNTS2): 1.18 ± 0.09 nM
